These results are taken from US20260258073A1, “CRYSTALLINE FORMS OF A NEUROACTIVE STEROID” (SAGE THERAPEUTICS, INC., priority 2022, published 2026).

Data set [1] is described as follows: Dynamic vapor sorption (DVS) isotherm of the solid form. Format: physicochemical. The method, then: DVS was measured using a SMS (Surface Measurement Systems) DVS Intrinsic. The relative humidity at 25° C. was calibrated against deliquescence point of LiCl, Mg(NO3)2 and KCl.
To investigate the solid form stability as a function of humidity, a DVS isotherm plot of Form A was collected at 25° C.

A short description of data set [2]: Solid form stability on heating and cooling, checked by XRPD. Conditions: cooling down to room temperature under nitrogen protection, re-exposure to ambient conditions. Format: physicochemical. How it is done: A PANalytical Empyrean X-ray powder diffractometer was used to collect X-ray diffraction patters as described herein. The diffraction peak position was calibrated using a PANalytical Si reference standard disc.
Form D was generated via vacuum dry of Form X. The XRPD pattern for Form D is provided in FIG. 3A and characteristic peaks are summarized in Table 20. […] (peak temperature) before a possible melting peak at 204.0° C. (peak temperature).
Form E was generated via liquid diffusion in BuOH/n-heptane of Form A at RT. […] (peak temperature) before possible melting peak at 203.1° C. (peak temperature). […] As evidenced by the presence of n-butanol methylene proton at ~3.7 ppm (1.5:1, molar ratio of n-butanol/API) detected by ^1H NMR in FIG. 4D, Form E was deemed to be an n-butanol solvate.

In the case of `C[C@H](CC[C@](C)(O)C(F)(F)F)[C@H]1CC[C@H]2[C@@H]3CC=C4C[C@@](C)(O)CC[C@]4(C)[C@H]3CC[C@]12C` [Form A], in data set [1] (25° C./80% RH), the “water uptake (DVS)” value was found to be 0.05%. Also, the “form change after DVS test (XRPD overlay before and after)” value in data set [1] (DVS isotherm collected at 25° C.) is given as “no form change”. Further, the hygroscopicity entry in data set [1] (from DVS at 25° C./80% RH) is on record as “non-hygroscopic”. Regarding `C[C@H](CC[C@](C)(O)C(F)(F)F)[C@H]1CC[C@H]2[C@@H]3CC=C4C[C@@](C)(O)CC[C@]4(C)[C@H]3CC[C@]12C` [Form D], in data set [2] (heating to 150° C.), the “solid form after heating (XRPD)” value was “converted to Form A”. With `C[C@H](CC[C@](C)(O)C(F)(F)F)[C@H]1CC[C@H]2[C@@H]3CC=C4C[C@@](C)(O)CC[C@]4(C)[C@H]3CC[C@]12C` [Form E], the “solid form after heating (XRPD)” value in data set [2] (heating to 140° C.) is recorded as “converted to Form B”.
